Active and inactive are the calls of the source. How the calls were made is not given here.
Test system: Jurkat human T cells viability, luminescence (cytotoxicity counterscreen)
Assay: Jurkat T cell cytotoxicity, dose response, cytotoxicity control, luminescence (AID 1117277)

Q: How did the IC50 turn out when `O=C(C[N+]12CCC(CC1)C(OC(=O)c1ccccc1)C2)c1ccc([N+](=O)[O-])cc1` (stereo unspecified) was run?
A: The IC50 was > 83.3 µM (inactive).
